Measured values taken from patent publication US10040781B2, “Tank-binding kinase inhibitor compounds” (Gilead Sciences, Inc., priority 2014, dated 2018).
Like-named read-outs stand apart in the source and are kept apart here.

Tests used:
[1] = biological target: IKKε (Homo sapiens (Human), UniProt Q14164); assay: IKKε TR-FRET enzymatic assay; type: biochemical; conditions: read-out: IKKe IC50
[2] = biological target: hJAK2 (Homo sapiens (Human), UniProt O60674); assay: hJAK2 LANCE TR-FRET enzymatic assay; type: biochemical; conditions: read-out: JAK2 IC50
[3] = biological target: TBK1 (Homo sapiens (Human), UniProt Q9UHD2); assay: TBK1 TR-FRET enzymatic assay;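 note: phosphorylation of a biotinylated Ser/Thr peptide by purified full-length recombinant TBK1, read by TR-FRET after 240 min at 25 °C, IC50 is the geometric mean of at least four runs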
[4] = TR-FRET, 2×Km ATP, geometric mean of minimum four determinations

Chain of IKKε (Q14164 whole entry): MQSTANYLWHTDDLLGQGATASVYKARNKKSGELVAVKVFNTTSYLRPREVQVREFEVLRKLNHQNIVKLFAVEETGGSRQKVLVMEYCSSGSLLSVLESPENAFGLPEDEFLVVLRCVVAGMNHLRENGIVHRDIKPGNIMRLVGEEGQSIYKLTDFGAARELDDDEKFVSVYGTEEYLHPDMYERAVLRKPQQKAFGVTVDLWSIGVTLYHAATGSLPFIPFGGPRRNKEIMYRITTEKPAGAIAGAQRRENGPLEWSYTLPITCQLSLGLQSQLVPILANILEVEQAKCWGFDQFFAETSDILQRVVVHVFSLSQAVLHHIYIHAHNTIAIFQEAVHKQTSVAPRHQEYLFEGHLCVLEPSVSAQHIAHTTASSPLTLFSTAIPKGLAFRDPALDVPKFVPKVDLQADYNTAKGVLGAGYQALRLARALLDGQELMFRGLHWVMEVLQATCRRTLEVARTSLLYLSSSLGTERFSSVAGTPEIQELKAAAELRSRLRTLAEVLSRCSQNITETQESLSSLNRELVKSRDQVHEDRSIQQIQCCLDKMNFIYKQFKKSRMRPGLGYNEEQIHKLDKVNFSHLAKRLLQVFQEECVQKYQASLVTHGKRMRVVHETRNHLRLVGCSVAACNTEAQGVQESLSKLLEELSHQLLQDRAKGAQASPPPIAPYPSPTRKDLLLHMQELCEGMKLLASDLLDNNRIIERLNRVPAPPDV
Chain of TBK1 (Q9UHD2 whole entry): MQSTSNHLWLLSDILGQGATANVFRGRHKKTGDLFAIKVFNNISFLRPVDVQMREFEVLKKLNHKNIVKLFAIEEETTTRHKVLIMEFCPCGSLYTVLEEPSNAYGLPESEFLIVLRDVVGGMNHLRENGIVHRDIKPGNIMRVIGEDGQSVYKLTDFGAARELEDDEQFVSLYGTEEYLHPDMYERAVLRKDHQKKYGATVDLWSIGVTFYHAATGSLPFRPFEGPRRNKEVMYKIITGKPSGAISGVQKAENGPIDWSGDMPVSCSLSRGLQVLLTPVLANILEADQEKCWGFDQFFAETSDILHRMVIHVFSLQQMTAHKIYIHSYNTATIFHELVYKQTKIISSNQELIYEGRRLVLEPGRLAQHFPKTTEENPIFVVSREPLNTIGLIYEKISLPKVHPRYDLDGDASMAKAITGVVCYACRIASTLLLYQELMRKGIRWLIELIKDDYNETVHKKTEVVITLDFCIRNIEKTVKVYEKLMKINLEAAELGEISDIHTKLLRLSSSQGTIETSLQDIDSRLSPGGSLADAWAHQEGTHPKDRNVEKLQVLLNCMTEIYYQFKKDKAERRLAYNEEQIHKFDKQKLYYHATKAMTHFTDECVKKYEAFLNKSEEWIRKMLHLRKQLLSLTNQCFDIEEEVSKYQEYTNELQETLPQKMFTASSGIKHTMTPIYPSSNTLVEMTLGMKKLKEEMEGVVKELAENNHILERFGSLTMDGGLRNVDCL
Chain of hJAK2 (O60674 whole entry): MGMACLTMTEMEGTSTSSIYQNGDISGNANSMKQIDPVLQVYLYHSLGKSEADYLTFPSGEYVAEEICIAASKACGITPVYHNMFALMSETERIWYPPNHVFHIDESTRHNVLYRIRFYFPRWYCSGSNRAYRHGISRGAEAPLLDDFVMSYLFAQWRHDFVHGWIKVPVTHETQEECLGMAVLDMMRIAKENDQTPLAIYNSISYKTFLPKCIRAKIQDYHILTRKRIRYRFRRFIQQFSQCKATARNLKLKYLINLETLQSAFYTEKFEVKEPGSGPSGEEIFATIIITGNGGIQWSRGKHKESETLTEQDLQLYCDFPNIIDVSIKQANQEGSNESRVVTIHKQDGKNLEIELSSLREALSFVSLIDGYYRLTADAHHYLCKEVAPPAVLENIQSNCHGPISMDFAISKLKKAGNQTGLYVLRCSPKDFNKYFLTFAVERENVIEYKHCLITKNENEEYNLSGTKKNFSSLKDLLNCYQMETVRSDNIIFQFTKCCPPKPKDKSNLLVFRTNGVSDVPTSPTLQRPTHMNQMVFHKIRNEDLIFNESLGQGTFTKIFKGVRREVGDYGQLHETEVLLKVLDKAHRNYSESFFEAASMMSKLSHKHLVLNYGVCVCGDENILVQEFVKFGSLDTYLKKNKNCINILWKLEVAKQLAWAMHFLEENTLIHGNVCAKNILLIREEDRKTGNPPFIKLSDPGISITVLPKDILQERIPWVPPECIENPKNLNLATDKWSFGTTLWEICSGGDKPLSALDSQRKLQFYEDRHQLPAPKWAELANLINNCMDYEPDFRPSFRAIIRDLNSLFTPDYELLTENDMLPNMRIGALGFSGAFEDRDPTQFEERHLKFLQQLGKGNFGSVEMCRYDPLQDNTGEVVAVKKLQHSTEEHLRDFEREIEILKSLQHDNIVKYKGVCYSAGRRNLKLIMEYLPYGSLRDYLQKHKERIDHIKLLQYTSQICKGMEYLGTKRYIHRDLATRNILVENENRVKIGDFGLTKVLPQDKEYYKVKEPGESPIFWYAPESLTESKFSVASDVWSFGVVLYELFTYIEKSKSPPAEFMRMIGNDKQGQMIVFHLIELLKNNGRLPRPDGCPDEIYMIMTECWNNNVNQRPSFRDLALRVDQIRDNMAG

Compound	IC50 [1]	IC50 [2]	IC50 [3]	IC50 [1, 4]
CC(C)(O)c1ccc(Nc2ncnc(-c3ccc(O[C@H]4CCN(C(=O)CO)C[C@H]4F)c(C#N)c3)n2)cn1 [Example 388, 2-(((3R,4S)-3-fluoro-1-(2-hydroxyacetyl)piperidin-4-yl)oxy)-5-(4-((6-(2-hydroxypropan-2-yl)pyridin-3-yl)amino)-1,3,5-triazin-2-yl)benzonitrile]	4 nM	≥ 1000 nM	6 nM	–
N#Cc1cc(-c2ncnc(Nc3ccc(N4CCN(C5COC5)CC4)cc3)n2)ccc1O[C@H]1CCN(C(=O)c2ccncc2N)C[C@H]1F [Example 390, 2-(((3R,4S)-1-(3-aminoisonicotinoyl)-3-fluoropiperidin-4-yl)oxy)-5-(4-((4-(4-(oxetan-3-yl)piperazin-1-yl)phenyl)amino)-1,3,5-triazin-2-yl)benzonitrile]	165 nM	37 nM	65 nM	–
CC(C)(O)c1cc(Nc2ncnc(-c3ccc(O[C@H]4CCN(C(=O)CO)C[C@H]4F)c(C#N)c3)n2)ccn1 [Example 397, 2-(((3R,4S)-3-fluoro-1-(2-hydroxyacetyl)piperidin-4-yl)oxy)-5-(4-((2-(2-hydroxypropan-2-yl)pyridin-4-yl)amino)-1,3,5-triazin-2-yl)benzonitrile]	2 nM	960 nM	2 nM	–
C[C@H](O)C(=O)N1CC[C@H](Oc2ccc(-c3ncnc(Nc4ccc(O[C@H]5CCN(C)C[C@H]5F)cc4)n3)cc2C#N)[C@H](F)C1 [Example 400, 2-(((3R,4S)-3-fluoro-1-((S)-2-hydroxypropanoyl)piperidin-4-yl)oxy)-5-(4-((4-(((3R,4S)-3-fluoro-1-methylpiperidin-4-yl)oxy)phenyl)amino)-1,3,5-triazin-2-yl)benzonitrile]	–	≥ 1000 nM	3 nM	1 nM
COCC(=O)N1CC[C@H](Oc2ccc(-c3ncnc(Nc4ccc(N5CCN(C6COC6)CC5)c(F)c4)n3)cc2C#N)[C@H](F)C1 [Example 402, 2-(((3R,4S)-3-fluoro-1-(2-methoxyacetyl)piperidin-4-yl)oxy)-5-(4-((3-fluoro-4-(4-(oxetan-3-yl)piperazin-1-yl)phenyl)amino)-1,3,5-triazin-2-yl)benzonitrile]	–	≥ 1000 nM	3 nM	3 nM
CN1C(=O)CC[C@H]1C(=O)N1CC[C@H](Oc2ccc(-c3ncnc(Nc4ccc(N5CCN(C6COC6)CC5)cc4)n3)cc2C#N)[C@H](F)C1 [Example 407, 2-(((3R,4S)-3-fluoro-1-((S)-1-methyl-5-oxopyrrolidine-2-carbonyl)piperidin-4-yl)oxy)-5-(4-((4-(4-(oxetan-3-yl)piperazin-1-yl)phenyl)amino)-1,3,5-triazin-2-yl)benzonitrile]	–	≥ 1000 nM	165 nM	165 nM

The remaining compounds from weak to strong by IC50 [2], led by results:

IC50 [1]	IC50 [2]	IC50 [3]	IC50 [1, 4]	Compound
1 nM	763 nM	3 nM	–	CN1CC[C@H](Oc2ccc(Nc3ncnc(-c4ccc(O[C@H]5CCN(C(=O)[C@@H](O)CO)C[C@H]5F)c(C#N)c4)n3)cc2)[C@H](F)C1 [Example 398, 2-(((3R,4S)-1-((S)-2,3-dihydroxypropanoyl)-3-fluoropiperidin-4-yl)oxy)-5-(4-((4-(((3R,4S)-3-fluoro-1-methylpiperidin-4-yl)oxy)phenyl)amino)-1,3,5-triazin-2-yl)benzonitrile]
–	174 nM	152 nM	270 nM	COc1cc(Nc2ncnc(-c3ccc(N4C[C@H](O)CCC4=O)c(C#N)c3)n2)ccc1N1CCN(C2COC2)CC1 [Example 399, (R)-2-(5-hydroxy-2-oxopiperidin-1-yl)-5-(4-((3-methoxy-4-(4-(oxetan-3-yl)piperazin-1-yl)phenyl)amino)-1,3,5-triazin-2-yl)benzonitrile]
1 nM	137 nM	2 nM	–	Cc1cc(Nc2ncnc(-c3ccc(O[C@H]4CCN(C(=O)[C@H](C)O)C[C@H]4F)c(C#N)c3)n2)ccc1N1CCN(C2COC2)CC1 [Example 396, 2-(((3R,4S)-3-fluoro-1-((S)-2-hydroxypropanoyl)piperidin-4-yl)oxy)-5-(4-((3-methyl-4-(4-(oxetan-3-yl)piperazin-1-yl)phenyl)amino)-1,3,5-triazin-2-yl)benzonitrile]
9 nM	122 nM	6 nM	–	N#Cc1cc(-c2ncnc(Nc3ccc(N4CCN(C5COC5)CC4)cc3)n2)ccc1O[C@H]1CCN(C(=O)c2[nH]ncc2N)C[C@H]1F [Example 391, 2-(((3R,4S)-1-(4-amino-1H-pyrazole-5-carbonyl)-3-fluoropiperidin-4-yl)oxy)-5-(4-((4-(4-(oxetan-3-yl)piperazin-1-yl)phenyl)amino)-1,3,5-triazin-2-yl)benzonitrile]
1 nM	119 nM	2 nM	–	C[C@H](O)C(=O)N1CC[C@H](Oc2ccc(-c3ncnc(Nc4ccc(N5CCN(C6COC6)CC5)c(OC(F)F)c4)n3)cc2C#N)[C@H](F)C1 [Example 395, 5-(4-((3-(difluoromethoxy)-4-(4-(oxetan-3-yl)piperazin-1-yl)phenyl)amino)-1,3,5-triazin-2-yl)-2-(((3R,4S)-3-fluoro-1-((S)-2-hydroxypropanoyl)piperidin-4-yl)oxy)benzonitrile]
1 nM	64 nM	2 nM	–	Cc1cc(Nc2ncnc(-c3ccc(O[C@H]4CCN(C(=O)CO)C[C@H]4F)c(C#N)c3)n2)ccc1N1CCN(C2COC2)CC1 [Example 394, 2-(((3R,4S)-3-fluoro-1-(2-hydroxyacetyl)piperidin-4-yl)oxy)-5-(4-((3-methyl-4-(4-(oxetan-3-yl)piperazin-1-yl)phenyl)amino)-1,3,5-triazin-2-yl)benzonitrile]
1 nM	55 nM	2 nM	–	COc1cc(Nc2ncnc(-c3ccc(O[C@H]4CCN(C(=O)[C@H](C)O)C[C@H]4F)c(C#N)c3)n2)ccc1N1CCN(C2COC2)CC1 [Example 389, 2-(((3R,4S)-3-fluoro-1-((S)-2-hydroxypropanoyl)piperidin-4-yl)oxy)-5-(4-((3-methoxy-4-(4-(oxetan-3-yl)piperazin-1-yl)phenyl)amino)-1,3,5-triazin-2-yl)benzonitrile]
1 nM	29 nM	3 nM	–	N#Cc1cc(-c2ncnc(Nc3ccc(N4CCN(C5COC5)CC4)c(OC(F)F)c3)n2)ccc1O[C@H]1CCN(C(=O)CO)C[C@H]1F [Example 393, 5-(4-((3-(difluoromethoxy)-4-(4-(oxetan-3-yl)piperazin-1-yl)phenyl)amino)-1,3,5-triazin-2-yl)-2-(((3R,4S)-3-fluoro-1-(2-hydroxyacetyl)piperidin-4-yl)oxy)benzonitrile]
1 nM	26 nM	5 nM	–	COc1cc(Nc2ncnc(-c3ccc(O[C@H]4CCN(C(=O)CO)C[C@H]4F)c(C#N)c3)n2)ccc1N1CCN(C2COC2)CC1 [Example 392, 2-(((3R,4S)-3-fluoro-1-(2-hydroxyacetyl)piperidin-4-yl)oxy)-5-(4-((3-methoxy-4-(4-(oxetan-3-yl)piperazin-1-yl)phenyl)amino)-1,3,5-triazin-2-yl)benzonitrile]
